According to patent publication US20130123365A1, “USE OF FTS AND ANALOGS TO TREAT NON-AUTOIMMUNE-ALLERGIC AND NON-ALLERGIC INFLAMMATORY CONDITIONS” (RAMOT AT TEL-AVIV UNIVERSITY LTD., priority 2010, published 2013):

Columns and labels:
LAD2 cells [1] = assay: TNF-α release from stimulated mast cells (ELISA); assay type: cell-based, human; settings: different concentrations of FTS, 3 hours after stimulation, dose dependent, p<0.05
Method: (§1) The LAD2 MC, expressing functional FCεRI receptors, were established from bone marrow aspirates of a patient with MC leukemia and maintained as previously described. Transfection of LAD2 cells was performed with DMRIE-C (Invitrogen, Carlsbad, Calif.), and cells were studied 24 hours later. For IgE-mediated activation, cells were sensitized overnight with 100 ng/ml of human myeloma IgE-biotin (Calbiochem; Merck Darmstadt, Germany) and then stimulated with 100 ng/ml of streptavidin (Jackson Immuno-Research Laboratories, West Grove, Pa.). Degranulation was quantified 20 minutes after stimulation by assaying the release of ε-hexosaminidase, a preformed mediator present in the secretory granules of MC. Release of ε-hexosaminidase was measured spectrophotometrically by assaying the cleavage of its substrate p-nitrophenyl-N-acetyl-ε-D-glucosaminide. Degranulation was expressed as a percentage of total ε-hexosaminidase activity in the cells, obtained by lysis of the cells with 0.5% triton X-100. Supernatants obtained from MC stimulated for 3 to 6 hours were examined for the released PGD2 and TNF-α by a commercial ELISA kits, according to the manufacturer's instructions (Prostaglandin D2-MOX EIA Kit, Cayman Chemical Company, Ann Arbor, Mich., and TNF-α HS Elisa kit, R&D® Systems Inc., Minneapolis, Minn.).

LAD2 cells [2] = assay: PGD2 release from stimulated mast cells (ELISA); assay type: cell-based, human; settings: 6 hours after stimulation
Method: as §1

N-Ras = target: T1, N-Ras (Homo sapiens, UniProt P01111); assay: Ras activation imaging: GFP-Raf-1-RBD probe translocation in LAD2 cells after FCεRI cross-linking; assay type: cell-based; settings: LAD2 cells expressing RFP-N-Ras, pretreated with 25 μM FTS
T1 construct: expressed in transfected cells; host or cells: LAD2 human mast cell line
Method: The LAD2 MC, expressing functional FCεRI receptors, were established from bone marrow aspirates of a patient with MC leukemia and maintained as previously described. Transfection of LAD2 cells was performed with DMRIE-C (Invitrogen, Carlsbad, Calif.), and cells were studied 24 hours later.
as §1, with “For” for “The LAD2 MC, expressing functional FCεRI receptors, were established from bone marrow aspirates of a patient with MC leukemia and maintained as previously described. Transfection of LAD2 cells was performed with DMRIE-C (Invitrogen, Carlsbad, Calif.), and cells were studied 24 hours later. For”
Live cells were plated in 35-mm dishes containing a no. […]

LAD2 cells [3] = assay: Mast cell degranulation (β-hexosaminidase secretion) after FCεRI cross-linking; assay type: cell-based, human; settings: 20 minutes after stimulation
Method: as §1

BALB/c female mice = assay: IgE-dependent passive cutaneous anaphylaxis reaction, footpad swelling; assay type: in vivo; settings: oral 100 mg/kg
Method: The study was approved by the Institutional Ethics Committee of Tel Aviv University. 8-10 weeks old BALB/c female mice were primed to express an IgE-dependent passive cutaneous anaphylaxis (PCA) reaction. Mice were lightly anaesthetized with ether and their left footpads were injected subcutaneously with 20 ul (20 ng) of IgE anti DNP. Their right footpads were injected with 20 ul of diluents. The next day the mice received an intraperitoneal injection of 100 ug of DNP30-40-HAS in saline. Footpad swelling was measured with an engineer's micrometer (Ozaki Mfg. Co., Itabashi, Tokyo). Footpad swelling was expressed as the difference in thickness before and after the challenge, measured at several time points after the challenge. FTS was orally administrated before the antigen challenge at 100 mg/kg as previously described.

Ras = assay: Raf-1-RBD pull-down assay of GTP loaded Ras in stimulated LAD2 cells; assay type: cell-based, human; settings: FCεRI cross-linking, pretreated with 25 μM FTS
Method: as §1, with “For” for “The LAD2 MC, expressing functional FCεRI receptors, were established from bone marrow aspirates of a patient with MC leukemia and maintained as previously described. Transfection of LAD2 cells was performed with DMRIE-C (Invitrogen, Carlsbad, Calif.), and cells were studied 24 hours later. For”, “Minn.). Methods of detecting activated Ras by pull-down assay and by SDS-PAGE immunoblotting were performed as previously described.” for “Minn.).”

T1 sequence (P01111 whole entry, species assumed): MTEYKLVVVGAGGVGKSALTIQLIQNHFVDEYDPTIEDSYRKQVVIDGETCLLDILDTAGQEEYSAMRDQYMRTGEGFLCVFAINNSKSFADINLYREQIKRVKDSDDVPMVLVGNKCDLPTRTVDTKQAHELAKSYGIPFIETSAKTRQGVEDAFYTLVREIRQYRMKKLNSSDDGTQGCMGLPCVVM

CC(C)=CCCC(C)=CCCC(C)=CCSc1ccccc1C(=O)O [FTS, S-farnesylthiosalicylic acid]
TNF-α release (LAD2 cells [1]): appreciably inhibited | release of PGD2 (LAD2 cells [2]; 25 μM FTS): not | release of PGD2 (LAD2 cells [2]; 50 μM FTS): inhibited | translocation of the probe for activated Ras (GFP-Raf-1-RBD) to the plasma membrane (N-Ras): completely blocked | immunological degranulation (β-hexosaminidase secretion) (LAD2 cells [3]; 25 μM FTS): did not significantly modify | immunological degranulation (β-hexosaminidase secretion) (LAD2 cells [3]; 50 μM FTS): did not significantly modify | tissue (footpad) swelling (BALB/c female mice; three hours after antigen challenge): inhibited tissue swelling | attenuation of tissue (footpad) swelling (BALB/c female mice; three to six hours after antigen challenge): ~40% | levels of GTP loaded Ras (Ras): significantly attenuated | relative reduction in the amount of activated Ras (Ras; n=4): approximately 35%
